Data reported in ChEMBL document CHEMBL1201862, “PubChem BioAssay data set” (2004).
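Assay format: 96-well plates, 48-hour exposure. Abbreviation: GI50, concentration required for 50% inhibition of growth.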 Calls of active or inactive are those of the source. Rule as the data show it: active = GI50 up to about 1.1 µM and inactive = higher.

Legend:
Test in all cases: NCI anticancer screen, dose series, 48 h
A549 = test system: A549
CCRF-CEM = test system: CCRF-CEM
HCT-15 = test system: HCT-15
HL-60 = test system: HL-60
HOP-62 = test system: HOP-62
K562 = test system: K562
LOX IMVI = test system: LOX IMVI
MDA-MB-231 = test system: MDA-MB-231
NCI-H226 = test system: NCI-H226
NCI-H23 = test system: NCI-H23
NCI/ADR-RES = test system: NCI/ADR-RES
OVCAR-3 = test system: OVCAR-3
PC-3 = test system: PC-3
SK-MEL-28 = test system: SK-MEL-28
SK-MEL-2 = test system: SK-MEL-2
SK-MEL-5 = test system: SK-MEL-5
TK-10 = test system: TK-10
U-251 = test system: U-251
UACC-257 = test system: UACC-257
UO-31 = test system: UO-31

SMILES | GI50 (A549) | GI50 (CCRF-CEM) | GI50 (HCT-15) [µM] | GI50 (HL-60) | GI50 (HOP-62) | GI50 (K562) | GI50 (LOX IMVI) | GI50 (MDA-MB-231) | GI50 (NCI-H226) | GI50 (NCI-H23) | GI50 (NCI/ADR-RES) | GI50 (OVCAR-3) | GI50 (PC-3) | GI50 (SK-MEL-28) | GI50 (SK-MEL-2) | GI50 (SK-MEL-5) | GI50 (TK-10) | GI50 (U-251) | GI50 (UACC-257) | GI50 (UO-31)
CS(=O)(=O)c1nc(Cl)c(Cl)c(C#N)c1Cl | 18.7 µM (inactive) | 0.998 µM (active) | 1.61 | 1.15 µM (inactive) | 19.3 µM (inactive) | 0.859 µM (active) | 1.95 µM (inactive) | 0.619 µM (active) | 13.2 µM (inactive) | 1.32 µM (inactive) | 2.25 µM (inactive) | 2.08 µM (inactive) | 5.35 µM (inactive) | 2.12 µM (inactive) | 5.37 µM (inactive) | 5.12 µM (inactive) | 3.18 µM (inactive) | 4.9 µM (inactive) | 2.49 µM (inactive) | 1.91 µM (inactive)
CC1CC(C)CN(S(=O)(=O)c2cc(Cl)c(Oc3ccc([N+](=O)[O-])cc3Cl)c(Cl)c2)C1 (stereo not drawn) | > 100 µM (inactive) |  | > 100 | > 100 µM (inactive) | > 100 µM (inactive) | > 100 µM (inactive) | > 100 µM (inactive) | > 100 µM (inactive) | > 100 µM (inactive) | > 100 µM (inactive) | > 100 µM (inactive) | > 100 µM (inactive) | > 100 µM (inactive) | > 100 µM (inactive) | > 100 µM (inactive) | > 100 µM (inactive) | > 100 µM (inactive) | > 100 µM (inactive) | > 100 µM (inactive) | > 100 µM (inactive)
FC(F)(F)c1nc2cc(SSc3cc4nc(C(F)(F)F)[nH]c4cc3Cl)c(Cl)cc2[nH]1 | > 100 µM (inactive) |  | > 100 | > 100 µM (inactive) | > 100 µM (inactive) | > 100 µM (inactive) | > 100 µM (inactive) | > 100 µM (inactive) | 53.3 µM (inactive) | > 100 µM (inactive) | > 100 µM (inactive) | 45.2 µM (inactive) | > 100 µM (inactive) | > 100 µM (inactive) | > 100 µM (inactive) | 65.3 µM (inactive) | > 100 µM (inactive) | > 100 µM (inactive) | 93.1 µM (inactive) | 
N#Cc1cc(C#N)c(N)nc1N | > 100 µM (inactive) | > 100 µM (inactive) | > 100 | > 100 µM (inactive) | > 100 µM (inactive) | > 100 µM (inactive) | 29.9 µM (inactive) | > 100 µM (inactive) | > 100 µM (inactive) | > 100 µM (inactive) | > 100 µM (inactive) | > 100 µM (inactive) | > 100 µM (inactive) |  | > 100 µM (inactive) | > 100 µM (inactive) | > 100 µM (inactive) | > 100 µM (inactive) | > 100 µM (inactive) | > 100 µM (inactive)
N#Cc1nc(-c2ccco2)oc1N | > 10 µM (inactive) | > 10 µM (inactive) | > 10 | > 10 µM (inactive) | > 10 µM (inactive) | > 10 µM (inactive) | > 10 µM (inactive) | > 10 µM (inactive) | > 10 µM (inactive) | > 10 µM (inactive) | > 10 µM (inactive) |  | > 10 µM (inactive) | > 10 µM (inactive) |  | > 10 µM (inactive) | > 10 µM (inactive) |  | > 10 µM (inactive) | > 10 µM (inactive)
CCNc1cc2c(cc1O)CC[C@@H]1[C@@H]2CC[C@]2(C)[C@@H](O)CC[C@@H]12 | 2.32 µM (inactive) | 1.41 µM (inactive) | 0.942 | 1.52 µM (inactive) |  | 0.711 µM (active) | 2.98 µM (inactive) | 10.5 µM (inactive) | 2.82 µM (inactive) | 12.9 µM (inactive) | 1.04 µM (active) |  | 9.91 µM (inactive) | 4.59 µM (inactive) |  | 0.394 µM (active) | 19.5 µM (inactive) | 1.61 µM (inactive) | 11.8 µM (inactive) | 6.75 µM (inactive)
CCCCc1ccc(-n2sc3ncc([N+](=O)[O-])cc3c2=O)cc1 | 12.9 µM (inactive) | 7.24 µM (inactive) | 15.1 | 10.4 µM (inactive) | 14.4 µM (inactive) |  | 13.3 µM (inactive) | 11.4 µM (inactive) | 12.8 µM (inactive) | 11.2 µM (inactive) | 11.5 µM (inactive) | 5.05 µM (inactive) | 5.55 µM (inactive) | 14.1 µM (inactive) | 1.57 µM (inactive) | 14.6 µM (inactive) | 21.1 µM (inactive) | 12.6 µM (inactive) | 16.6 µM (inactive) | 12.5 µM (inactive)
O=c1[nH]c(=O)n(C2OC(CO)C(O)C2O)cc1OCCc1ccccc1 (stereo not drawn) | > 100 µM (inactive) | > 100 µM (inactive) | > 100 | > 100 µM (inactive) | > 100 µM (inactive) |  | > 100 µM (inactive) | > 100 µM (inactive) | > 100 µM (inactive) | > 100 µM (inactive) | > 100 µM (inactive) | > 100 µM (inactive) | > 100 µM (inactive) | > 100 µM (inactive) | > 100 µM (inactive) | > 100 µM (inactive) | > 100 µM (inactive) |  | > 100 µM (inactive) | 
Cc1cn(CC2=NCCN2)c(=O)[nH]c1=O | > 100 µM (inactive) | > 100 µM (inactive) | > 100 | > 100 µM (inactive) | > 100 µM (inactive) | > 100 µM (inactive) | > 100 µM (inactive) | > 100 µM (inactive) | > 100 µM (inactive) | > 100 µM (inactive) | > 100 µM (inactive) |  | > 100 µM (inactive) | > 100 µM (inactive) | > 100 µM (inactive) | > 100 µM (inactive) | > 100 µM (inactive) | > 100 µM (inactive) | > 100 µM (inactive) | > 100 µM (inactive)
OCCSCC(O)Cn1cnc2c(O)nc(Nc3ccccc3)nc21 (stereo not drawn) | > 100 µM (inactive) | > 100 µM (inactive) | > 100 | > 100 µM (inactive) | > 100 µM (inactive) |  | > 100 µM (inactive) | > 100 µM (inactive) | > 100 µM (inactive) | > 100 µM (inactive) | > 100 µM (inactive) | > 100 µM (inactive) | > 100 µM (inactive) | > 100 µM (inactive) | > 100 µM (inactive) | > 100 µM (inactive) | > 100 µM (inactive) | > 100 µM (inactive) | > 100 µM (inactive) | 
C[C@@]12C[C@@H](c3ccccc3O1)N1CCCCSC1=N2 |  | > 100 µM (inactive) | > 100 | 3.46 µM (inactive) | > 100 µM (inactive) | > 100 µM (inactive) | > 100 µM (inactive) | > 100 µM (inactive) | > 100 µM (inactive) | > 100 µM (inactive) | > 100 µM (inactive) | > 100 µM (inactive) | > 100 µM (inactive) | > 100 µM (inactive) | > 100 µM (inactive) | > 100 µM (inactive) | > 100 µM (inactive) | > 100 µM (inactive) | > 100 µM (inactive) | > 100 µM (inactive)
Cc1cn(C2CC(O)C(Cn3nncc3Cn3ccc(=O)[nH]c3=O)O2)c(=O)[nH]c1=O (stereo not drawn) | > 100 µM (inactive) | > 100 µM (inactive) | > 100 | > 100 µM (inactive) | > 100 µM (inactive) |  | > 100 µM (inactive) | > 100 µM (inactive) | > 100 µM (inactive) | > 100 µM (inactive) | > 100 µM (inactive) | > 100 µM (inactive) | > 100 µM (inactive) | > 100 µM (inactive) | > 100 µM (inactive) | > 100 µM (inactive) | > 100 µM (inactive) | > 100 µM (inactive) | > 100 µM (inactive) | > 100 µM (inactive)
CNc1ccc(Cl)cc1C(=O)N1CCC[C@H]1CO | > 100 µM (inactive) | > 100 µM (inactive) | > 100 | > 100 µM (inactive) | > 100 µM (inactive) | > 100 µM (inactive) | > 100 µM (inactive) | > 100 µM (inactive) | > 96.4 µM (inactive) | > 100 µM (inactive) | > 100 µM (inactive) | > 100 µM (inactive) | > 100 µM (inactive) | > 100 µM (inactive) | > 100 µM (inactive) |  | > 100 µM (inactive) | > 100 µM (inactive) | > 100 µM (inactive) | > 100 µM (inactive)
N#C/N=C1/c2ccccc2/C(=N/C#N)c2cc(CO)ccc21 | 20.9 µM (inactive) |  | 27.2 | 21.6 µM (inactive) | 42.6 µM (inactive) | 23.3 µM (inactive) | 30.5 µM (inactive) | 71.4 µM (inactive) | 37.8 µM (inactive) | 27.1 µM (inactive) | 28.5 µM (inactive) | 26.9 µM (inactive) | 33.7 µM (inactive) | 43 µM (inactive) | 61.2 µM (inactive) | 27 µM (inactive) | 27.3 µM (inactive) | 34.4 µM (inactive) | 26.6 µM (inactive) | 30.2 µM (inactive)
Oc1cccc2ccc(Br)nc12 | > 100 µM (inactive) | 46.6 µM (inactive) | > 100 | 36.2 µM (inactive) | > 100 µM (inactive) | > 100 µM (inactive) | > 100 µM (inactive) | > 100 µM (inactive) | > 100 µM (inactive) | > 100 µM (inactive) | > 100 µM (inactive) | > 100 µM (inactive) | 86.5 µM (inactive) | > 100 µM (inactive) |  | > 100 µM (inactive) | > 100 µM (inactive) | > 100 µM (inactive) | > 100 µM (inactive) | > 100 µM (inactive)
